The NIST ThermoML archive (doi:10.1021/je200213h)
Numbers after ± are expanded uncertainties.

Test: xn = mol fraction of the nth substance listed
Details: 101 kPa, Liquid, Capillary tube (Ostwald / Ubbelohde) method

CCC(C)(C)C [2,2-dimethylbutane] + CCCCCl
kinematic viscosity [m2/s]
Details	283.15 K	298.15 K	313.15 K
x1 = 0.0524	5.594e-07 ± 4.7e-09	4.802e-07 ± 4.1e-09	4.231e-07 ± 3.7e-09
x1 = 0.101	5.603e-07 ± 4.7e-09	4.809e-07 ± 4.1e-09	4.239e-07 ± 3.7e-09
x1 = 0.1995	5.627e-07 ± 4.7e-09	4.822e-07 ± 4.2e-09	4.253e-07 ± 3.7e-09
x1 = 0.3081	5.663e-07 ± 4.8e-09	4.846e-07 ± 4.2e-09	4.275e-07 ± 3.8e-09
x1 = 0.3985	5.705e-07 ± 4.8e-09	4.867e-07 ± 4.2e-09	4.294e-07 ± 3.8e-09
x1 = 0.499	5.76e-07 ± 4.8e-09	4.898e-07 ± 4.2e-09	4.322e-07 ± 3.8e-09
x1 = 0.5984	5.822e-07 ± 4.9e-09	4.943e-07 ± 4.2e-09	4.362e-07 ± 3.8e-09
x1 = 0.7015	5.899e-07 ± 4.9e-09	5e-07 ± 4.3e-09	4.409e-07 ± 3.9e-09
x1 = 0.7986	5.992e-07 ± 5e-09	5.063e-07 ± 4.3e-09	4.463e-07 ± 3.9e-09
x1 = 0.9002	6.098e-07 ± 5.1e-09	5.133e-07 ± 4.4e-09	4.52e-07 ± 3.9e-09
x1 = 0.9487	6.16e-07 ± 5.1e-09	5.17e-07 ± 4.4e-09	4.55e-07 ± 4e-09

CCC(C)CC [3-methylpentane] + CCCCCl
kinematic viscosity [m2/s]
Details	283.15 K	298.15 K	313.15 K
x1 = 0.0518	5.496e-07 ± 4.6e-09	4.734e-07 ± 4.1e-09	4.175e-07 ± 3.7e-09
x1 = 0.094	5.448e-07 ± 4.6e-09	4.704e-07 ± 4.1e-09	4.155e-07 ± 3.7e-09
x1 = 0.2038	5.326e-07 ± 4.5e-09	4.622e-07 ± 4e-09	4.088e-07 ± 3.6e-09
x1 = 0.304	5.228e-07 ± 4.5e-09	4.553e-07 ± 4e-09	4.036e-07 ± 3.6e-09
x1 = 0.4059	5.143e-07 ± 4.4e-09	4.5e-07 ± 3.9e-09	3.988e-07 ± 3.5e-09
x1 = 0.5021	5.075e-07 ± 4.3e-09	4.453e-07 ± 3.9e-09	3.952e-07 ± 3.5e-09
x1 = 0.5999	5.017e-07 ± 4.3e-09	4.411e-07 ± 3.9e-09	3.921e-07 ± 3.5e-09
x1 = 0.7043	4.97e-07 ± 4.3e-09	4.382e-07 ± 3.8e-09	3.896e-07 ± 3.5e-09
x1 = 0.8049	4.945e-07 ± 4.2e-09	4.365e-07 ± 3.8e-09	3.884e-07 ± 3.5e-09
x1 = 0.9038	4.928e-07 ± 4.2e-09	4.351e-07 ± 3.8e-09	3.879e-07 ± 3.5e-09
x1 = 0.9492	4.928e-07 ± 4.2e-09	4.355e-07 ± 3.8e-09	3.877e-07 ± 3.5e-09

CC(C)(C)Cl [2-chloro-2-methylpropane] + CCC(C)CC
kinematic viscosity [m2/s]
Details	283.15 K	298.15 K	313.15 K
x2 = 0.0496	6.755e-07 ± 5.6e-09	5.548e-07 ± 4.7e-09	4.681e-07 ± 4.1e-09
x2 = 0.0995	6.538e-07 ± 5.4e-09	5.4e-07 ± 4.6e-09	4.576e-07 ± 4e-09
x2 = 0.2046	6.148e-07 ± 5.1e-09	5.14e-07 ± 4.4e-09	4.4e-07 ± 3.8e-09
x2 = 0.3023	5.848e-07 ± 4.9e-09	4.937e-07 ± 4.2e-09	4.256e-07 ± 3.7e-09
x2 = 0.405	5.592e-07 ± 4.7e-09	4.767e-07 ± 4.1e-09	4.14e-07 ± 3.7e-09
x2 = 0.5064	5.394e-07 ± 4.6e-09	4.637e-07 ± 4e-09	4.051e-07 ± 3.6e-09
x2 = 0.6033	5.235e-07 ± 4.5e-09	4.536e-07 ± 3.9e-09	3.984e-07 ± 3.5e-09
x2 = 0.7038	5.114e-07 ± 4.4e-09	4.462e-07 ± 3.9e-09	3.933e-07 ± 3.5e-09
x2 = 0.8012	5.026e-07 ± 4.3e-09	4.41e-07 ± 3.9e-09	3.9e-07 ± 3.5e-09
x2 = 0.9018	4.964e-07 ± 4.3e-09	4.377e-07 ± 3.8e-09	3.881e-07 ± 3.5e-09
x2 = 0.9514	4.946e-07 ± 4.2e-09	4.372e-07 ± 3.8e-09	3.88e-07 ± 3.5e-09

CCC(C)Cl (stereo not drawn) [2-chlorobutane] + CCC(C)CC
kinematic viscosity [m2/s]
Details	283.15 K	298.15 K	313.15 K
x2 = 0.0518	5.193e-07 ± 4.4e-09	4.574e-07 ± 4e-09	4.031e-07 ± 3.6e-09
x2 = 0.101	5.142e-07 ± 4.4e-09	4.542e-07 ± 4e-09	4.004e-07 ± 3.6e-09
x2 = 0.2014	5.066e-07 ± 4.3e-09	4.483e-07 ± 3.9e-09	3.958e-07 ± 3.5e-09
x2 = 0.3025	4.995e-07 ± 4.3e-09	4.431e-07 ± 3.9e-09	3.919e-07 ± 3.5e-09
x2 = 0.4027	4.943e-07 ± 4.2e-09	4.39e-07 ± 3.8e-09	3.885e-07 ± 3.5e-09
x2 = 0.4998	4.906e-07 ± 4.2e-09	4.362e-07 ± 3.8e-09	3.865e-07 ± 3.5e-09
x2 = 0.6043	4.881e-07 ± 4.2e-09	4.345e-07 ± 3.8e-09	3.851e-07 ± 3.4e-09
x2 = 0.7008	4.87e-07 ± 4.2e-09	4.34e-07 ± 3.8e-09	3.844e-07 ± 3.4e-09
x2 = 0.8004	4.874e-07 ± 4.2e-09	4.337e-07 ± 3.8e-09	3.847e-07 ± 3.4e-09
x2 = 0.8981	4.897e-07 ± 4.2e-09	4.344e-07 ± 3.8e-09	3.858e-07 ± 3.5e-09
x2 = 0.9481	4.911e-07 ± 4.2e-09	4.356e-07 ± 3.8e-09	3.868e-07 ± 3.5e-09

CCCCCl [1-chlorobutane] + CCCCCCC
kinematic viscosity [m2/s]
Details	283.15 K	298.15 K	313.15 K
x1 = 0.0508	5.595e-07 ± 4.7e-09	4.824e-07 ± 4.2e-09	4.248e-07 ± 3.7e-09
x1 = 0.1017	5.632e-07 ± 4.7e-09	4.857e-07 ± 4.2e-09	4.278e-07 ± 3.8e-09
x1 = 0.1981	5.703e-07 ± 4.8e-09	4.927e-07 ± 4.2e-09	4.335e-07 ± 3.8e-09
x1 = 0.2989	5.788e-07 ± 4.9e-09	5e-07 ± 4.3e-09	4.396e-07 ± 3.8e-09
x1 = 0.4022	5.882e-07 ± 4.9e-09	5.088e-07 ± 4.3e-09	4.471e-07 ± 3.9e-09
x1 = 0.4998	5.984e-07 ± 5e-09	5.177e-07 ± 4.4e-09	4.545e-07 ± 4e-09
x1 = 0.6008	6.102e-07 ± 5.1e-09	5.278e-07 ± 4.5e-09	4.624e-07 ± 4e-09
x1 = 0.6989	6.229e-07 ± 5.2e-09	5.386e-07 ± 4.6e-09	4.705e-07 ± 4.1e-09
x1 = 0.7985	6.367e-07 ± 5.3e-09	5.501e-07 ± 4.7e-09	4.792e-07 ± 4.1e-09
x1 = 0.898	6.52e-07 ± 5.4e-09	5.626e-07 ± 4.7e-09	4.882e-07 ± 4.2e-09
x1 = 0.9498	6.608e-07 ± 5.5e-09	5.692e-07 ± 4.8e-09	4.935e-07 ± 4.2e-09

CC(C)CCl [1-chloro-2-methylpropane] + CCCCCCC
kinematic viscosity [m2/s]
Details	283.15 K	298.15 K	313.15 K
x2 = 0.0507	5.818e-07 ± 4.9e-09	4.95e-07 ± 4.2e-09	4.381e-07 ± 3.8e-09
x2 = 0.0979	5.817e-07 ± 4.9e-09	4.97e-07 ± 4.3e-09	4.396e-07 ± 3.8e-09
x2 = 0.2004	5.851e-07 ± 4.9e-09	5.015e-07 ± 4.3e-09	4.438e-07 ± 3.9e-09
x2 = 0.3008	5.905e-07 ± 4.9e-09	5.064e-07 ± 4.3e-09	4.483e-07 ± 3.9e-09
x2 = 0.3993	5.97e-07 ± 5e-09	5.134e-07 ± 4.4e-09	4.536e-07 ± 3.9e-09
x2 = 0.4999	6.054e-07 ± 5.1e-09	5.215e-07 ± 4.4e-09	4.599e-07 ± 4e-09
x2 = 0.5973	6.156e-07 ± 5.1e-09	5.306e-07 ± 4.5e-09	4.663e-07 ± 4e-09
x2 = 0.6994	6.268e-07 ± 5.2e-09	5.403e-07 ± 4.6e-09	4.733e-07 ± 4.1e-09
x2 = 0.8006	6.397e-07 ± 5.3e-09	5.516e-07 ± 4.7e-09	4.809e-07 ± 4.1e-09
x2 = 0.9002	6.538e-07 ± 5.4e-09	5.633e-07 ± 4.7e-09	4.894e-07 ± 4.2e-09
x2 = 0.9491	6.615e-07 ± 5.5e-09	5.692e-07 ± 4.8e-09	4.94e-07 ± 4.2e-09
